The values below come from ChEMBL document CHEMBL1140974, “Synthesis and antimalarial activity of semicarbazone and thiosemicarbazone derivatives” (Eur J Med Chem, 2008).

Activity calls are given as the source filed them. No cut-off for these calls is given here.

Data set [1] has as its system PBMC. Put plainly: Antiproliferative activity against PHA-stimulated human PBMC after 72 hrs by MTT assay. Type of data set: cell-based.
Data set [2] concerns PBMC. The experiment in a line: Antiproliferative activity against PHA-stimulated human PBMC at 20 ug/mL after 72 hrs by MTT assay relative to control. Type of data set: cell-based.
Data set [3] deals with Plasmodium falciparum. The experiment in a line: Antimalarial activity against chloroquine-resistant Plasmodium falciparum W2 in human erythrocytes at 20 ug/mL by [3H]hypoxanthine uptake. Type of data set: functional.
Data set [4] relates to Plasmodium falciparum. Put plainly: Antimalarial activity against chloroquine-resistant Plasmodium falciparum W2 in human erythrocytes by [3H]hypoxanthine uptake. Type of data set: functional, organism-based.
For data set [5], the system named is Plasmodium berghei. The experiment in a line: Antiplasmodial activity as reduced parasitaemia after 7 days in Plasmodium berghei NK65 infected BALB/c mice (Mus musculus) at 10 mg/kg/day over 4 days. Type of data set: functional. Set-up: scale not given: the % may be the effect or the level left.
Data set [6] relates to Plasmodium berghei. The experiment in a line: Antiplasmodial activity as reduced parasitaemia after 5 days in Plasmodium berghei NK65 infected BALB/c mice (Mus musculus) at 20 mg/kg/day over 4 days. Type of data set: functional. Set-up: scale not given: the % may be the effect or the level left.
Data set [7] deals with Plasmodium berghei. Put plainly: Antiplasmodial activity as reduced parasitaemia after 5 day sin Plasmodium berghei NK65 infected BALB/c mice (Mus musculus) at 10 mg/kg/day over 4 days. Type of data set: functional. Set-up: scale not given: the % may be the effect or the level left.
For data set [8], the system named is Plasmodium berghei. The experiment in a line: Antiplasmodial activity as reduced parasitaemia after 5 days in Plasmodium berghei NK65 infected BALB/c mice (Mus musculus) at 15 mg/kg/day over 4 days. Type of data set: functional. Set-up: scale not given: the % may be the effect or the level left.
The test system of data set [9] is Plasmodium berghei. Put plainly: Antiplasmodial activity after 5 days as reduced parasitaemia in Plasmodium berghei NK65 infected BALB/c mice (Mus musculus) at 5 mg/kg/day for 4 days. Type of data set: functional. More on the design: scale not given: the % may be the effect or the level left.
In data set [10] the test system is Plasmodium berghei. Put plainly: Antiplasmodial activity as reduced parasitaemia after 7 days in Plasmodium berghei NK65 infected BALB/c mice (Mus musculus) at 5 mg/kg/day over 4 days. More on the design: scale not given: the % may be the effect or the level left. Type of data set: functional.
The subject of data set [11] is Plasmodium berghei. Put plainly: Antiplasmodial activity as reduced parasitaemia after 7 days in Plasmodium berghei NK65 infected BALB/c mice (Mus musculus) at 15 mg/kg/day over 4 days. Type of data set: functional. More on the design: scale not given: the % may be the effect or the level left.
Data set [12] has as its system Plasmodium berghei. The experiment in a line: Antiplasmodial activity as reduced parasitaemia after 7 days in Plasmodium berghei NK65 infected BALB/c mice (Mus musculus) at 20 mg/kg/day over 4 days. More on the design: scale not given: the % may be the effect or the level left. Type of data set: functional.

Broadly, the IC50 is the concentration that inhibits the measured activity by half. In turn, `CCN(CC)CCCC(C)Nc1ccnc2cc(Cl)ccc12` (stereo not drawn) [CHLOROQUINE] displayed an IC50 in data set [1] of 5.1 µM.
Turning to `COc1cc(/C=N/NC(N)=O)ccc1O`, in data set [2], the Activity is recorded as 116%. Further, the outcome in data set [3] was inactive.
The compound `COc1cc(/C=N/NC(N)=O)cc(OC)c1OC` had an Activity in data set [2] of 107%. In [3], the result was inactive.
The corresponding values for `CC(C)=CCC/C(C)=N\NC(N)=O` are 107% and “inactive”.
One may read the inhibition as how much of the control response was suppressed. As for `CC/C(=N/NC(N)=S)C(C)CC=C(C)C` (stereo not drawn), in data set [2], the Activity came out at 60%. Also, the IC50 in [1] is 31.3 µM; in [4], 9.2 µM. In addition, the inhibition at 20 µg/mL in data set [3] is 99%.
Compound `CC/C(=N/NC(N)=O)C(C)CC=C(C)C` (stereo not drawn) came in with an Activity in data set [2] of 0%. Besides, the result in [3] was inactive.
Turning to `COc1ccc(/C=N/NC(N)=O)cc1`, in [2], the Activity was found to be 141%. The same compound gave an inhibition at 20 µg/mL in data set [3] of 38%.
For `COc1ccc(/C=N/NC(N)=S)cc1`, the Activity in data set [2] is reported as 90%. In addition, the outcome in data set [3] was inactive.
The corresponding values for `CN(C)c1ccc(/C=N/NC(N)=O)cc1` are 84% and “inactive”.
The corresponding values for `COc1cc(/C=N/NC(N)=S)cc(OC)c1OC` are 78% and “inactive”.
As for `CC1(C)C2CC=C(/C=N/NC(N)=S)C1C2` (stereo not drawn), the Activity in [5] is 32%; in data set [6] it was 77.5%; in data set [7], 36%; in data set [8], 93%; in data set [2] it was 76%; in data set [9], 0%. Besides, the Activity in [10] came to 8%; in data set [11] it was 94.5%; in [12], 61%. Moreover, the IC50 worked out at 73.5 µM in [1] and 7.2 µM in data set [4]. Further, in data set [3], the inhibition at 20 µg/mL worked out at 95%.
Compound `CC(C)=CCC/C(C)=N\NC(N)=S` yielded an Activity in [2] of 98%. Also, the IC50 worked out at 35.2 µM in data set [1] and 12.6 µM in [4]. Besides, in data set [3], the inhibition at 20 µg/mL is 100%.
In turn, `CC1(C)C2CC=C(/C=N/NC(N)=O)C1C2` (stereo not drawn) showed an Activity in [2] of 110%. Moreover, in data set [3], the outcome was inactive.
Compound `CCCC/C(CC)=N\NC(N)=O` had an Activity in data set [2] of 89%. Moreover, the result in [3] was inactive.
With `COc1ccc(/C=N/NC(N)=O)cc1OC`, in data set [2], the Activity is 80%. In [3], this compound had an inhibition at 20 µg/mL of 32%.
